This is an account of results in patent US20150005281A1, “PYRIMIDINE-2,4-DIAMINE DERIVATIVES AS KINASE INHIBITORS” (Cellzome Limited, priority 2011, published 2015).

pIC50: −log10 of the molar value. Structures can show the parent of a compound that is named as a salt. Some results are limits rather than exact numbers.

Type in all cases: binding
The target in one assay is T1, JAK2 (Homo sapiens, UniProt O60674).
T1 construct: endogenous in cells; host or cells: Molt4 (ATCC CRL-1582) and Ramos (ATCC CRL-1596) cells; mixed lysate 1:2
The experiment in a line: Kinobeads assay with immunodetection, JAK2. As to conditions: mixed Molt4/Ramos lysate, read-out: Inhibition values (IC50) JAK2. In a few lines:
(§1)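 Molt4 plus Ramos lysate (1:2), 10 mg/mL, mixed with compound dilutions (1:3 series from 5 mM DMSO stock) and kinobeads; 3 h, cold room. Bead-bound JAKs eluted, dot blot immunodetection, IC50 from dose-response.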

In a further assay the target is T2, JAK3 (Homo sapiens, UniProt P52333).
T2 construct: endogenous in cells; host or cells: Molt4 (ATCC CRL-1582) and Ramos (ATCC CRL-1596) cells; mixed lysate 1:2
T2 sequence (P52333 1-1124): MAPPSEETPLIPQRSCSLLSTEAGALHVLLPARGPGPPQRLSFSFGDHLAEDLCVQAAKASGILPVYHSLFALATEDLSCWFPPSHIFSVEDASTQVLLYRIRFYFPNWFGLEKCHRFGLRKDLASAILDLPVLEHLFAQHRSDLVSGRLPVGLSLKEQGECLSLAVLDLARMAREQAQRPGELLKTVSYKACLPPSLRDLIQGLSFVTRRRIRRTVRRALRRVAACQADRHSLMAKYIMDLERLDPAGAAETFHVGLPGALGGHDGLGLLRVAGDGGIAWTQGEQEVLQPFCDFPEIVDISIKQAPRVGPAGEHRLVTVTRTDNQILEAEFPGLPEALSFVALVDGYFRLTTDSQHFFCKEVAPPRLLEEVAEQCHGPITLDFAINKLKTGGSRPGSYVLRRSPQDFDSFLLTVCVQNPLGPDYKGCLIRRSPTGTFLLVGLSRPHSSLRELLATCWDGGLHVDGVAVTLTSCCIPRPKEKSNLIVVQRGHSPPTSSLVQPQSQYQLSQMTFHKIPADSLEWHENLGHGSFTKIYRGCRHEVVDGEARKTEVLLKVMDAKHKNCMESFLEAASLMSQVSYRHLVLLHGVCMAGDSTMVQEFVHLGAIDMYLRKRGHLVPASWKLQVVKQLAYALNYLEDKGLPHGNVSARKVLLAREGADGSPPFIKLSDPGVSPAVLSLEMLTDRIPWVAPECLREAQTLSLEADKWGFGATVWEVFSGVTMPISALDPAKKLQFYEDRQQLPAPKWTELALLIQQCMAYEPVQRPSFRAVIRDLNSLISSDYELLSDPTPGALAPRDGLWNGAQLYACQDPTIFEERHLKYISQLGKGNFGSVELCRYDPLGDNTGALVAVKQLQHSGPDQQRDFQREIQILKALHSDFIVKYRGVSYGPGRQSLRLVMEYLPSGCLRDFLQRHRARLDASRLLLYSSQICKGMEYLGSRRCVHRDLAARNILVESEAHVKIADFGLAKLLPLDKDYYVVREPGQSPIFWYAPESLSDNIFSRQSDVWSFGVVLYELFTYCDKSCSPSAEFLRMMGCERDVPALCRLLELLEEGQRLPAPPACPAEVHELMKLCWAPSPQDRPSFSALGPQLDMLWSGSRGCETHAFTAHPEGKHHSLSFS
The assay is described as follows: Kinobeads assay with immunodetection, JAK3. As to conditions: for pIC50: Kinobeads assay, mixed Molt4/Ramos lysate, read-out: Inhibition values (IC50) JAK3. The gist of the method: as §1

In a further assay the target is T3, TYK2 (Homo sapiens, UniProt P29597).
T3 construct: endogenous in cells; host or cells: Molt4 (ATCC CRL-1582) and Ramos (ATCC CRL-1596) cells; mixed lysate 1:2
The experiment in a line: Kinobeads assay with immunodetection, TYK2. As to conditions: for pIC50: Kinobeads assay, mixed Molt4/Ramos lysate, read-out: Inhibition values (IC50) Tyk2. The gist of the method:
as §1

For another assay, the target named is T4, JAK1 (Homo sapiens, UniProt P23458).
T4 construct: endogenous in cells; host or cells: Molt4 (ATCC CRL-1582) and Ramos (ATCC CRL-1596) cells; mixed lysate 1:2
The experiment in a line: Kinobeads assay with immunodetection, JAK1. As to conditions: for pIC50: Kinobeads assay, mixed Molt4/Ramos lysate, read-out: Inhibition values (IC50) JAK1. The gist of the method:
as §1

T4 sequence (P23458 whole entry): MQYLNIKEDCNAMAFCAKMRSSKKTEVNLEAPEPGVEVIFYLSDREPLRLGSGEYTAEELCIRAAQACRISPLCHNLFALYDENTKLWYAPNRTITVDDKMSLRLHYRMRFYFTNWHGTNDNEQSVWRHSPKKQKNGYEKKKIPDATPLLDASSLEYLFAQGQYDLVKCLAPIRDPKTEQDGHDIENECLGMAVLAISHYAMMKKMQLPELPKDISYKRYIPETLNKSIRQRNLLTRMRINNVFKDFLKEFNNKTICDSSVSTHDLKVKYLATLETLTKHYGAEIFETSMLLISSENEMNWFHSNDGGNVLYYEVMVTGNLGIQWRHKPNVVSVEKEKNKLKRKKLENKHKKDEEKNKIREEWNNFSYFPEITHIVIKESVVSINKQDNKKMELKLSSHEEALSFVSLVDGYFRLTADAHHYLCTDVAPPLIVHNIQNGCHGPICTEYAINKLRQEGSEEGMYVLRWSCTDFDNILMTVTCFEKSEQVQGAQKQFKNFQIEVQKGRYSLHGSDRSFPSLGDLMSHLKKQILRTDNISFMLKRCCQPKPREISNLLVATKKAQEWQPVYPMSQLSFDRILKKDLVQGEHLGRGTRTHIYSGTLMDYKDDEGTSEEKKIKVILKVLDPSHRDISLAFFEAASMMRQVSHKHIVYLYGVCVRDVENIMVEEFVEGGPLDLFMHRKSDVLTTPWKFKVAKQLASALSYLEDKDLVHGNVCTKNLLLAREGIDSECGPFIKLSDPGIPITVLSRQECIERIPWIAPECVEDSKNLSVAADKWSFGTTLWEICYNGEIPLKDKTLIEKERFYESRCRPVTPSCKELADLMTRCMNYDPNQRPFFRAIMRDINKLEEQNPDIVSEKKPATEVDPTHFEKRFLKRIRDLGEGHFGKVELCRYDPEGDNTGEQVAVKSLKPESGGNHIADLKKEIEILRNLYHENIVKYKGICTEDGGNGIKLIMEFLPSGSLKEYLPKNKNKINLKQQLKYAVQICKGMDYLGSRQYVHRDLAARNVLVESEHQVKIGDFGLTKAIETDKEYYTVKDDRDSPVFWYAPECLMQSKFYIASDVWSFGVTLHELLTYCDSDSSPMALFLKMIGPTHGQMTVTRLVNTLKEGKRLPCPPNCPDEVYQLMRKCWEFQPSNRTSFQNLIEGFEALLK
T3 sequence (P29597 whole entry): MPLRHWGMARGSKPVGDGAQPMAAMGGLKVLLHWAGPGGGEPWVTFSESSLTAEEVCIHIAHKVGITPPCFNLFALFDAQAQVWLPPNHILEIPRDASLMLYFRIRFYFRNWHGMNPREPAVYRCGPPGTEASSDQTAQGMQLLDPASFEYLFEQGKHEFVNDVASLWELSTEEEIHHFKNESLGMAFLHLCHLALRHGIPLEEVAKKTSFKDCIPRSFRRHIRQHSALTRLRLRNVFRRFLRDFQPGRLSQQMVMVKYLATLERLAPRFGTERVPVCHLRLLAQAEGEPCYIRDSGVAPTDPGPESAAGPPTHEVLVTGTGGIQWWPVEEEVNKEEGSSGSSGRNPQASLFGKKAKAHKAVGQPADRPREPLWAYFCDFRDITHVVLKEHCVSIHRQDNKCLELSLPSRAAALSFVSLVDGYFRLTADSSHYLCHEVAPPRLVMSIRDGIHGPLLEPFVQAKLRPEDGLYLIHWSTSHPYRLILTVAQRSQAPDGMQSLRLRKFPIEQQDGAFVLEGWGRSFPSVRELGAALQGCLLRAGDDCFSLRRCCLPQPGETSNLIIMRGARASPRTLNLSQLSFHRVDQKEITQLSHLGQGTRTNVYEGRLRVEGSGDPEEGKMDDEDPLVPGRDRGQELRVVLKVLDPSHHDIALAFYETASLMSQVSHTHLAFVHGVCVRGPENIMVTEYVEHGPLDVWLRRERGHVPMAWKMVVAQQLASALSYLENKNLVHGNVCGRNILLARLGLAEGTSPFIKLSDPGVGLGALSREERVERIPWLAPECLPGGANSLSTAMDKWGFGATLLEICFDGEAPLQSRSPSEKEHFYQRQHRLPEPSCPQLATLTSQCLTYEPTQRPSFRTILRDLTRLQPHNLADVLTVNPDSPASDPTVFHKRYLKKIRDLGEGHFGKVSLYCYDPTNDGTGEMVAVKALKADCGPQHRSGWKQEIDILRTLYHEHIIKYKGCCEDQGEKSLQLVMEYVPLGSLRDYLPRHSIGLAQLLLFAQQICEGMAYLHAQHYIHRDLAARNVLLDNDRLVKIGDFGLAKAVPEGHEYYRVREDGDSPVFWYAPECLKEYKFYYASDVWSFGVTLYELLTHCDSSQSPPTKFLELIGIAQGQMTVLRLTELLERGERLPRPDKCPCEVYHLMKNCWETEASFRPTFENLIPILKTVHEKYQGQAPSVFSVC
T1 sequence (O60674 whole entry): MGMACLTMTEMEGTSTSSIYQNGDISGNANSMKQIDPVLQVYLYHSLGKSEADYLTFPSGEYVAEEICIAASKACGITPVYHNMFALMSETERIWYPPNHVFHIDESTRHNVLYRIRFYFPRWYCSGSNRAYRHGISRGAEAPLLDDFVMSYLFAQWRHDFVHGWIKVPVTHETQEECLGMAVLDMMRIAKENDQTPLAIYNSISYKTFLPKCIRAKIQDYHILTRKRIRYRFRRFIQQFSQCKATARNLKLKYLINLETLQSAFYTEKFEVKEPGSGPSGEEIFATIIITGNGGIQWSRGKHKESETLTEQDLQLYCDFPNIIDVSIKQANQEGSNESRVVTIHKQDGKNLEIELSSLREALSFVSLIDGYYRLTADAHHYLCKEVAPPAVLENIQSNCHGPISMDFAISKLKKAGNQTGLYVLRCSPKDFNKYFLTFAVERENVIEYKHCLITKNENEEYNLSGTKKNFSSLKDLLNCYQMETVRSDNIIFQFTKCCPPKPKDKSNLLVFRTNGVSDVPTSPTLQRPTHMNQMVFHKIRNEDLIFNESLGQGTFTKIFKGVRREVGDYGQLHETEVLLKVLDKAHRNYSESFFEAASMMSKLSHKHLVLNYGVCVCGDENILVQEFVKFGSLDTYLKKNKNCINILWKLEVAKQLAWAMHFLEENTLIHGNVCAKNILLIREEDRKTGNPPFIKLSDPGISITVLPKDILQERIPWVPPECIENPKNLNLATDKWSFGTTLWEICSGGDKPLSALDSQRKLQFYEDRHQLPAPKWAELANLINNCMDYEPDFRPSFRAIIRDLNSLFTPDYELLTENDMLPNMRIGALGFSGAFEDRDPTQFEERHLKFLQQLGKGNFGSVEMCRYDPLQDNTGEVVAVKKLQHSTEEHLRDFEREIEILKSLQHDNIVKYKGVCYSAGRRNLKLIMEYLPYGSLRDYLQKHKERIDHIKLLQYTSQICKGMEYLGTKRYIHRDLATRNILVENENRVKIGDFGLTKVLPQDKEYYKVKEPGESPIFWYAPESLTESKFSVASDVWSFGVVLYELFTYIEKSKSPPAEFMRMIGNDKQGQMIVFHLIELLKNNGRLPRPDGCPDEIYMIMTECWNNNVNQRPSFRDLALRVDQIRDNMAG

For orientation: pIC50 means the negative decadic logarithm of the IC50, by convention in mol/L. With `Cc1cnc(Nc2cnn(CC(F)F)c2)nc1NC[C@H]1CCCN1CCS(C)(=O)=O` [Example 116, (R)—N^2-(1-(2,2-difluoroethyl)-1H-pyrazol-4-yl)-5-methyl-N^4-((1-(2-(methylsulfonyl)ethyl)pyrrolidin-2-yl)methyl)pyrimidine-2,4-diamine], the negative logarithm of the IC50 (pIC50) at JAK2 is 5.00 to 6.00; on JAK3 it was greater than 7.00; at TYK2, greater than 7.00; on JAK1 it was greater than 7.00. The “Selectivity ratio over JAK2, JAK1” value at JAK1 is reported as “JAK1 = 70”.

With `Cc1cnc(Nc2cnn(C)c2)nc1NC[C@H]1CCCN1S(C)(=O)=O` [Example 76, (R)-5-methyl-N^2-(1-methyl-1H-pyrazol-4-yl)-N^4-((1-(methylsulfonyl)pyrrolidin-2-yl)methyl)pyrimidine-2,4-diamine], the negative logarithm of the IC50 (pIC50) on JAK2 is 6.00 to 7.00; on JAK3, greater than 7.00; on TYK2, greater than 7.00; at JAK1 it was greater than 7.00. For the same compound, the “Selectivity ratio over JAK2, JAK1” value at JAK1 is on record as “JAK1 = 26”.

For `CC(=O)N1CC[C@@H](CNc2nc(Nc3cnn(C)c3)ncc2Cl)C1` [Example 26, (S)-1-(3-(((5-chloro-2-((1-methyl-1H-pyrazol-4-yl)amino)pyrimidin-4-yl)amino)methyl)pyrrolidin-1-yl)ethanone], the pIC50 on JAK2 was 5.00 to 6.00; on JAK3 it was 5.00 to 6.00; on TYK2, 6.00 to 7.00; at JAK1, 6.00 to 7.00. The “Selectivity ratio over JAK2, JAK1” value at JAK1 is “JAK1 = 9”.

Consider `Cc1cnc(Nc2cnn(CC(F)F)c2)nc1NC[C@@H]1CCCN1C(=O)CC#N` [Example 124, (S)-3-(2-(((2-((1-(2,2-difluoroethyl)-1H-pyrazol-4-yl)amino)-5-methylpyrimidin-4-yl)amino)methyl)pyrrolidin-1-yl)-3-oxopropanenitrile], for which the negative-log IC50 (pIC50) at JAK2 is 5.00 to 6.00; on JAK3, 6.00 to 7.00; at TYK2, greater than 7.00; at JAK1 it was greater than 7.00. Also, the “Selectivity ratio over JAK2, JAK1” value on JAK1 was “JAK1 = 101”.

Regarding `Cn1cc(Nc2ncc(Cl)c(NC[C@H]3CCCN3CCS(C)(=O)=O)n2)cn1` [Example 50, (R)-5-chloro-N^2-(1-methyl-1H-pyrazol-4-yl)-N^4-((1-(2-(methylsulfonyl)ethyl)pyrrolidin-2-yl)methyl)pyrimidine-2,4-diamine], the pIC50 was 6.00 to 7.00 on JAK2, greater than 7.00 at JAK3, greater than 7.00 at TYK2 and greater than 7.00 on JAK1. Moreover, the “Selectivity ratio over JAK2, Tyk2” value at TYK2 is recorded as “Tyk2 = 25”.

Turning to `Cc1cnc(Nc2cnn(C)c2)nc1NC[C@@H]1CCCN1` [Example 73, (S)-5-methyl-N^2-(1-methyl-1H-pyrazol-4-yl)-N^4-(pyrrolidin-2-ylmethyl)pyrimidine-2,4-diamine Hydrochloride], the pIC50 was less than 5.00 on JAK2, 5.00 to 6.00 at JAK3, 5.00 to 6.00 at TYK2 and 5.00 to 6.00 on JAK1.

On to `CC(C)NC(=O)Cn1cc(Nc2nccc(NC[C@H]3CCCN3CCS(C)(=O)=O)n2)cn1` [Example 84, (R)—N-isopropyl-2-(4-((4-(((1-(2-(methylsulfonyl)ethyl)pyrrolidin-2-yl)methyl)amino)pyrimidin-2-yl)amino)-1H-pyrazol-1-yl)acetamide], for which the pIC50 at JAK2 was less than 5.00; on JAK3, 6.00 to 7.00; on TYK2, greater than 7.00; at JAK1 it was 6.00 to 7.00. At TYK2, the “Selectivity ratio over JAK2, Tyk2” value is given as “Tyk2 = 435”.

As for `C=CC(=O)N1CCC[C@H]1CNc1nc(Nc2cnn(C)c2)ncc1Cl` [Example 10, (S)-1-(2-(((5-chloro-2-((1-methyl-1H-pyrazol-4-yl)amino)pyrimidin-4-yl)amino)methyl)pyrrolidin-1-yl)prop-2-en-1-one], the negative-log IC50 (pIC50) was less than 5.00 on JAK2, 5.00 to 6.00 at JAK3, 5.00 to 6.00 at TYK2 and 5.00 to 6.00 on JAK1.

In the case of `Cn1cc(Nc2ncc(Cl)c(NC[C@@H]3CCCCN3S(C)(=O)=O)n2)cn1` [Example 36, (S)-5-chloro-N^2-(1-methyl-1H-pyrazol-4-yl)-N^4-((1-(methylsulfonyl)piperidin-2-yl)methyl)pyrimidine-2,4-diamine], the pIC50 on JAK2 was 5.00 to 6.00; on JAK3, 6.00 to 7.00; at TYK2 it was 6.00 to 7.00; on JAK1 it was greater than 7.00. Also, the “Selectivity ratio over JAK2, JAK3” value at JAK3 is “JAK3 = 54”.

Turning to `C=CS(=O)(=O)N1CC[C@@H](CNc2nc(Nc3cnn(C)c3)ncc2Cl)C1` [Example 31, (S)-5-chloro-N^2-(1-methyl-1H-pyrazol-4-yl)-N^4-((1-(vinylsulfonyl)pyrrolidin-3-yl)methyl)pyrimidine-2,4-diamine], the pIC50 on JAK2 is 5.00 to 6.00; at JAK3 it was greater than 7.00; at TYK2 it was 6.00 to 7.00; on JAK1, 6.00 to 7.00. For the same compound, on JAK3, the “Selectivity ratio over JAK2, JAK3” value is reported as “JAK3 = 190”.

As for `Cn1cc(Nc2ncc(Cl)c(NCC3CN(S(C)(=O)=O)C3)n2)cn1` [Example 18, 5-chloro-N^2-(1-methyl-1H-pyrazol-4-yl)-N^4-((1-(methylsulfonyl)azetidin-3-yl)methyl)pyrimidine-2,4-diamine], the negative-log IC50 (pIC50) at JAK2, on JAK3, at TYK2 and at JAK1 was less than 5.00 in each case.

For `CC(C)NC(=O)Cn1cc(Nc2nccc(NC[C@H]3CCCN3C(=O)CC#N)n2)cn1` [Example 96, (R)-2-(4-((4-(((1-(2-cyanoacetyl)pyrrolidin-2-yl)methyl)amino)pyrimidin-2-yl)amino)-1H-pyrazol-1-yl)-N-isopropylacetamide], the pIC50 at JAK2 is less than 5.00; at JAK3, 5.00 to 6.00; at TYK2, greater than 7.00; on JAK1 it was 6.00 to 7.00. Also, the “Selectivity ratio over JAK2, Tyk2” value at TYK2 was “Tyk2 = 555”.

Consider `C=CS(=O)(=O)N1CCC[C@@H]1CNc1nc(Nc2cnn(C)c2)ncc1Cl` [Example 7, (R)-5-chloro-N^2-(1-methyl-1H-pyrazol-4-yl)-N^4-((1-(vinylsulfonyl)pyrrolidin-2-yl)methyl)pyrimidine-2,4-diamine], for which the negative logarithm of the IC50 (pIC50) was 5.00 to 6.00 on JAK2, greater than 7.00 at JAK3, 6.00 to 7.00 at TYK2 and 6.00 to 7.00 on JAK1. The “Selectivity ratio over JAK2, JAK3” value at JAK3 was “JAK3 = 100”.

As for `Cc1cnc(Nc2cnn(CC(F)F)c2)nc1NC[C@H]1CCN(C(=O)CC#N)C1` [Example 129, (R)-3-(3-(((2-((1-(2,2-difluoroethyl)-1H-pyrazol-4-yl)amino)-5-methylpyrimidin-4-yl)amino)methyl)pyrrolidin-1-yl)-3-oxopropanenitrile], the pIC50 was 5.00 to 6.00 on JAK2, 6.00 to 7.00 on JAK3, greater than 7.00 at TYK2 and greater than 7.00 on JAK1. Moreover, the “Selectivity ratio over JAK2, JAK1” value on JAK1 was “JAK1 = 139”.

For `Cc1cnc(Nc2cnn(C)c2)nc1NC[C@@H]1C[C@H](F)CN1CCS(C)(=O)=O` [Example 100, N^4-(((2S,4S)-4-fluoro-1-(2-(methylsulfonyl)ethyl)pyrrolidin-2-yl)methyl)-5-methyl-N^2-(1-methyl-1H-pyrazol-4-yl)pyrimidine-2,4-diamine], the negative-log IC50 (pIC50) at JAK2 is 6.00 to 7.00; at JAK3 it was 6.00 to 7.00; on TYK2, greater than 7.00; at JAK1, greater than 7.00. Further, the “Selectivity ratio over JAK2, JAK1” value on JAK1 is recorded as “JAK1 = 26”.

With `CC(=O)N1CCCC[C@H]1CNc1nc(Nc2cnn(C)c2)ncc1Cl` [Example 32, (S)-1-(2-(((5-chloro-2-((1-methyl-1H-pyrazol-4-yl)amino)pyrimidin-4-yl)amino)methyl)piperidin-1-yl)ethanone], the negative logarithm of the IC50 (pIC50) on JAK2 is less than 5.00; at JAK3, 5.00 to 6.00; on TYK2, 5.00 to 6.00; at JAK1, 5.00 to 6.00.
